According to patent publication US10392394B2, “Antimicrobial compounds and methods” (Board of Supervisors of Louisiana State University and …, priority 2013, dated 2019):

How the values were obtained:
[1] = test system: Human gingival fibroblasts; experiment: Biocompatibility (cytotoxicity) test, Calcein-AM cell survival; assay type: cell-based; details: 24 h exposure, FIG. 1
Procedure: Synthesized monomers (Formulas 4-6, 10, and 11) and methacryloyloxyundecyldi-methylbenzylammonium bromide (Formula 1) were tested for biocompatibility (cytotoxicity). Human gingival fibroblasts were obtained from extracted molars from patients with healthy gingival following informed consent as prescribed in an approved IRB protocol. Gingival fibroblasts were maintained in MEM containing 10% fetal calf serum (FCS) and 200 units/mL penicillin and 200 μg/mL streptomycin. Cells were grown in 48-well plates for 24 h prior to exposure to the monomers. The growth media containing 0.1% dimethylsulfoxide (DMSO) were supplemented with 10^−4 M, 10^−5 M, 10^−6 M and 10^−7 M concentrations of five newly synthesized exemplary monomers (Formulas 4-6, 10, and 11) and added to the cells for 24 h. MEM served as a control for cytotoxicity. Cell survival was visualized using a fluorescent esterase substrate (Calcein-AM) and a inverted fluorescent microscope. Cell survival was quantified using a fluorescent multi-well plate reader.

[2] = test system: Streptococcus mutans, Lactobacillus casei, Staphylococcus aureus and Pseudomonas aeruginosa; experiment: Antimicrobial activity, automated growth curve analysis; assay type: cell-based; details: 10^−4 M-10^−7 M in BMGS medium, triplicate, FIG. 2
Procedure: Evaluation of antimicrobial activities of Formula 1 and synthesized monomers (Formulas 4-6, 10, and 11) was also performed. Streptococcus mutans was grown in brain heart infusion (BHI, Difco Laboratories, Detroit, Mich.), Lactobacillus casei was grown in MRS medium (Difco), Staphylococcus aureus and Pseudomonas aeruginosa were grown in Trypticase Soy Broth (TSB; Difco). They all were grown under static conditions in an 37° C. aerobic chamber with (for S. mutans only) or without 5% CO2. For antimicrobial assay, these bacteria were cultivated using a modified semi-defined biofilm medium (BM) with glucose (18 mM) and sucrose (2 mM) (BMGS) as the supplemental carbohydrate sources. Antimicrobial efficacy was measured using an automated growth curve analysis system. Overnight cultures were transferred to fresh medium and allowed to grow to mid-exponential phase, when they were properly diluted in BMGS and allowed to grow in the automated growth curve analysis system with and without inclusion of Formula 1 and synthesized monomers (Formulas 4-6, 10, and 11). All antimicrobial monomers were dissolved in DMSO at 10^−2 M concentration and serial dilutions were made to achieve the desired concentrations (10^−4 M-10^−7 M). All experiments were run in triplicate.

[3] = concentrations of 10^−5 M and below

| Compound | cytotoxicity (cell survival) ([1]; 10^−4 M concentration) | antibacterial activity [2] | cytotoxicity (cell survival) [1, 3] |
| --- | --- | --- | --- |
| C=C(C)C(=O)OCC(COC(=O)C(=C)C)OC(=O)CCCCCCCCC[N+]12CCN(CC1)CC2.[Br-] [Formula 4, 2-(1,3-dimethacryloyloxy)propyl 10-(1-(1-azonia-4-azabicylco[2.2.2]octyl))decanoate bromide] | little cytotoxicity | – | – |
| C=C(C)C(=O)OCC(COC(=O)C(=C)C)OC(=O)CCCCCCCCCCCCCCC[N+]12CCN(CC1)CC2.[Br-] [Formula 5, 2-(1,3-dimethacryloyloxy)propyl 16-(1-(1-azonia-4-azabicylco[2.2.2]octyl))hexadecanoate bromide] | significant cell death | Highest levels of antibacterial activity | good biocompatibility |
| C=C(C)C(=O)OCC(COC(=O)C(=C)C)OC(=O)CCCCCCCCCCCCCCC[N+](C)(C)Cc1ccccc1 [Formula 6, 2-(1,3-dimethacryloyloxy)propyl 16-N,N-dimethylbenzylammoniumhexadecanoate bromide] | significant cell death | Highest levels of antibacterial activity | good biocompatibility |
| C=C(C)C(=O)OCCCCCCCCCCCCCCCC[N+]12CCN(CC1)CC2.[Br-] [Formula 11, 16-(1-azonia-4-azabicylco[2.2.2]octyl)hexadecylmethacrylate bromide] | little cytotoxicity | – | – |
